Test results: the NIST ThermoML archive (doi:10.1016/j.fluid.2016.06.028)
Numbers after ± are expanded uncertainties.

Conditions: for surface tension liquid-gas: Ring tensiometer; for viscosity / electrical conductivity / mass density: 101.33 kPa, Liquid; for viscosity: Concentric cylinders viscometry; for electrical conductivity: Direct current cell with electrodes; for mass density: Vibrating tube method

Row | Compound | surface tension liquid-gas (298.15 K) | viscosity (298.15 K) | electrical conductivity (298.15 K) | mass density (298.15 K) | surface tension liquid-gas (303.15 K) | viscosity (303.15 K) | electrical conductivity (303.15 K) | mass density (303.15 K) | surface tension liquid-gas (313.15 K) | viscosity (313.15 K) | electrical conductivity (313.15 K) | mass density (313.15 K) | surface tension liquid-gas (323.15 K) | viscosity (323.15 K) | electrical conductivity (323.15 K) | mass density (323.15 K) | surface tension liquid-gas (333.15 K) | viscosity (333.15 K) | electrical conductivity (333.15 K) | mass density (333.15 K) | also measured
1 | CC[N+](C)(C)CCOC.O=S(=O)([N-]S(=O)(=O)C(F)(F)F)C(F)(F)F | 47.56 ± 0.85 mN/m | 59.39 ± 6 mPa·s | 0.288 ± 0.04 S/m | 1424.9 ± 1.8 kg/m3 | 47.32 ± 0.84 mN/m | 50.39 ± 5.1 mPa·s | 0.315 ± 0.04 S/m | 1420.5 ± 1.8 kg/m3 | 45.67 ± 0.82 mN/m | 30.59 ± 3.1 mPa·s | 0.357 ± 0.04 S/m | 1411 ± 1.8 kg/m3 | 44.86 ± 0.81 mN/m | 23.1 ± 2.3 mPa·s | 0.395 ± 0.04 S/m | 1401.5 ± 1.8 kg/m3 | 43.46 ± 0.8 mN/m | 18.3 ± 1.8 mPa·s | 0.465 ± 0.04 S/m | 1390.3 ± 1.8 kg/m3 | surface tension liquid-gas (343.15 K): 42.23 ± 0.78 mN/m; viscosity (343.15 K): 15 ± 1.5 mPa·s; electrical conductivity (343.15 K): 0.551 ± 0.04 S/m; mass density (343.15 K): 1379.2 ± 1.7 kg/m3; surface tension liquid-gas (353.15 K): 40.44 ± 0.76 mN/m; viscosity (353.15 K): 13.2 ± 1.3 mPa·s; electrical conductivity (353.15 K): 0.633 ± 0.04 S/m; mass density (353.15 K): 1368.9 ± 1.7 kg/m3
2 | COCC[N+]1(C)CCCC1.O=S(=O)([N-]S(=O)(=O)C(F)(F)F)C(F)(F)F | 49.22 ± 0.87 mN/m | 52.19 ± 5.2 mPa·s | 0.345 ± 0.04 S/m | 1453 ± 1.9 kg/m3 | 48.62 ± 0.86 mN/m | 46.49 ± 4.7 mPa·s | 0.402 ± 0.04 S/m | 1448.7 ± 1.9 kg/m3 | 47.34 ± 0.84 mN/m | 34.49 ± 3.5 mPa·s | 0.48 ± 0.04 S/m | 1439.3 ± 1.9 kg/m3 | 46.18 ± 0.83 mN/m | 25.79 ± 2.6 mPa·s | 0.534 ± 0.04 S/m | 1429.9 ± 1.9 kg/m3 | 45 ± 0.81 mN/m | 20.1 ± 2 mPa·s | 0.59 ± 0.04 S/m | 1420.7 ± 1.8 kg/m3 | surface tension liquid-gas (343.15 K): 44.26 ± 0.81 mN/m; viscosity (343.15 K): 16.8 ± 1.7 mPa·s; electrical conductivity (343.15 K): 0.648 ± 0.04 S/m; mass density (343.15 K): 1411.2 ± 1.8 kg/m3; surface tension liquid-gas (353.15 K): 42.28 ± 0.78 mN/m; viscosity (353.15 K): 13.5 ± 1.4 mPa·s; electrical conductivity (353.15 K): 0.699 ± 0.04 S/m; mass density (353.15 K): 1401.9 ± 1.8 kg/m3
3 | COCC[N+]1(C)CCCCC1.O=S(=O)([N-]S(=O)(=O)C(F)(F)F)C(F)(F)F | 44.65 ± 0.81 mN/m | 69.89 ± 7 mPa·s | 0.209 ± 0.04 S/m | 1433.2 ± 1.9 kg/m3 | 44.06 ± 0.8 mN/m | 55.79 ± 5.6 mPa·s | 0.241 ± 0.04 S/m | 1429 ± 1.9 kg/m3 | 43.2 ± 0.79 mN/m | 35.69 ± 3.6 mPa·s | 0.287 ± 0.04 S/m | 1419.8 ± 1.8 kg/m3 | 42.01 ± 0.78 mN/m | 26 ± 2.6 mPa·s | 0.325 ± 0.04 S/m | 1410.7 ± 1.8 kg/m3 | 40.98 ± 0.76 mN/m | 19.8 ± 2 mPa·s | 0.396 ± 0.04 S/m | 1401.7 ± 1.8 kg/m3 | surface tension liquid-gas (343.15 K): 40.19 ± 0.75 mN/m; viscosity (343.15 K): 15.6 ± 1.6 mPa·s; electrical conductivity (343.15 K): 0.489 ± 0.04 S/m; mass density (343.15 K): 1392.5 ± 1.8 kg/m3; surface tension liquid-gas (353.15 K): 38.83 ± 0.74 mN/m; viscosity (353.15 K): 13.8 ± 1.4 mPa·s; electrical conductivity (353.15 K): 0.599 ± 0.04 S/m; mass density (353.15 K): 1383.3 ± 1.7 kg/m3
4 | COCC[N+]1(C)CCOCC1.O=S(=O)([N-]S(=O)(=O)C(F)(F)F)C(F)(F)F | 50.14 ± 0.88 mN/m | 257.6 ± 26 mPa·s | 0.065 ± 0.04 S/m | 1500.2 ± 2.1 kg/m3 | 49.3 ± 0.87 mN/m | 210.9 ± 22 mPa·s | 0.079 ± 0.04 S/m | 1495.7 ± 2 kg/m3 | 48.41 ± 0.86 mN/m | 127.2 ± 13 mPa·s | 0.108 ± 0.04 S/m | 1486.4 ± 2 kg/m3 | 47.64 ± 0.85 mN/m | 77.98 ± 7.9 mPa·s | 0.136 ± 0.04 S/m | 1477.2 ± 2 kg/m3 | 46.3 ± 0.83 mN/m | 51.89 ± 5.2 mPa·s | 0.17 ± 0.04 S/m | 1468 ± 2 kg/m3 | surface tension liquid-gas (343.15 K): 45.36 ± 0.82 mN/m; viscosity (343.15 K): 37.49 ± 3.8 mPa·s; electrical conductivity (343.15 K): 0.257 ± 0.04 S/m; mass density (343.15 K): 1458.9 ± 1.9 kg/m3; surface tension liquid-gas (353.15 K): 44.74 ± 0.81 mN/m; viscosity (353.15 K): 27.59 ± 2.8 mPa·s; electrical conductivity (353.15 K): 0.334 ± 0.04 S/m; mass density (353.15 K): 1449.8 ± 1.9 kg/m3
5 | CCC[N+](C)(C)CC.O=S(=O)([N-]S(=O)(=O)C(F)(F)F)C(F)(F)F | 46.56 ± 0.83 mN/m | 58.79 ± 5.9 mPa·s | 0.248 ± 0.04 S/m | 1403 ± 1.8 kg/m3 | 45.84 ± 0.83 mN/m | 53.39 ± 5.4 mPa·s | 0.281 ± 0.04 S/m | 1398.8 ± 1.8 kg/m3 | 44.92 ± 0.81 mN/m | 38.39 ± 3.9 mPa·s | 0.325 ± 0.04 S/m | 1389.8 ± 1.8 kg/m3 | 43.95 ± 0.8 mN/m | 28.49 ± 2.9 mPa·s | 0.358 ± 0.04 S/m | 1381 ± 1.7 kg/m3 | 43.34 ± 0.79 mN/m | 21.3 ± 2.1 mPa·s | 0.414 ± 0.04 S/m | 1372.1 ± 1.7 kg/m3 | surface tension liquid-gas (343.15 K): 42.03 ± 0.78 mN/m; viscosity (343.15 K): 17.1 ± 1.7 mPa·s; electrical conductivity (343.15 K): 0.519 ± 0.04 S/m; mass density (343.15 K): 1362.4 ± 1.7 kg/m3; surface tension liquid-gas (353.15 K): 40.89 ± 0.76 mN/m; viscosity (353.15 K): 14.1 ± 1.4 mPa·s; electrical conductivity (353.15 K): 0.634 ± 0.04 S/m; mass density (353.15 K): 1352.7 ± 1.7 kg/m3
